This is an account of results in US10654818B2, “Furane derivatives as inhibitors of ATAD2” (BAYER PHARMA AKTIENGESELLSCHAFT, priority 2015, dated 2020).

The assay has as its target T1, recombinant, N-terminally GST-tagged ATAD2 bromodomain amino acids 981-1108 (Homo sapiens, UniProt Q6PL18).
T1 construct: ATAD2 bromodomain amino acids 981-1108; made in house; host or cells: E. coli
T1 sequence (Q6PL18 981-1108): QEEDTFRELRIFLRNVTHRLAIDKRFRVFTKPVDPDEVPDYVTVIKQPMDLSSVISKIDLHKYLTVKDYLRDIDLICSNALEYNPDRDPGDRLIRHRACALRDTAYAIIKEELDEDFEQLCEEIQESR
As to the kind of experiment: TR-FRET assay: disruption of the interaction between ATAD2 and acetylated Histone H4 (Ac-H4) peptide. It counts as binding. The note with it: inhibition of ATAD2/Ac-H4 complex formation; 10 nM ATAD2, 50 nM Ac-H4 peptide. The text has this: The ability of the compounds described in the present invention to disrupt the interaction between ATAD2 and acetylated Histone H4 (Ac-H4) was used as quantitative measure of their ATAD2-binding affinities.
To this end a TR-FRET assay which detects the binding of an Ac-H4-derived synthetic peptide (purchased from e.g. Biosyntan (Berlin, Germany)) of sequence HSGRGKGGGGKGLGK(Ac)GGAKRHRK-Biotin to recombinant, N-terminally GST-tagged ATAD2 bromodomain amino acids 981-1108. The protein was produced in-house via E. coli expression followed by GSH-Sepharose affinity- and Superdex S200-size exclusion chromatography purification.
Typically, 11 different concentrations of each compound (0.1 nM, 0.33 nM, 1.1 nM, 3.8 nM, 13 nM, 44 nM, 0.15 μM, 0.51 μM, 1.7 μM, 5.9 μM and 20 μM) were tested in duplicate within the same microtiter plate. To this end, 100-fold concentrated compound solutions (in DMSO) were previously prepared with a Precision Pippeting System (BioTek) by serial dilution (1:3.4) of 2 mM stocks in clear, low-volume 384-well microtiter source plates (Greiner Bio-One). Subsequently, 50 nl of compounds were transferred into black, low-volume test plates from the same supplier using a Hummingbird capillary based liquid handling instrument (Digilab). Tests were started by the addition of 2 μl of 2.5-fold concentrated ATAD2 solution (25 nM=10 nM final concentration in the 5 μl assay volume) in aqueous assay buffer [50 mM HEPES pH 7.5, 50 mM potassium fluoride (KF), 100 mM sodium chloride (NaCl), 0.25 mM CHAPS, 0.05% bovine serum albumine (BSA) and 1 mM dithiothreitol (DTT)] to the compounds in the test plate with a Multidrop dispenser (Thermo-Fisher). Test plates were then incubated 10′ at 22° C., in order to allow pre-equilibration of putative compound-ATAD2 complexes. Subsequently, 3 μl of a 1.67-fold concentrated solution containing Ac-H4 peptide (83.5 nM=50 nM final concentration) and TR-FRET detection reagents [16.7 nM Anti-GST-XL665 (Cisbio), =10 nM final concentration and 4.17 nM Lance EU W-1024 Streptavidin Europium Chelate (Perkin-Elmer)=2.5 nM final concentration were dispensed into the plates.
The mixture was further incubated in the dark for 1 hour at 22° C. Finally the inhibition of the formation of ATAD2/Ac-H4 complexes was assessed by measurement of the resonance energy transfer from the Streptavidin-Eu-Chelate to the anti-GST-XL665 antibody present in the reaction. To this end, the fluorescence emissions at 622 nm and 665 nm after excitation at 337 nm were measured in a TR-FRET reader, e.g. a Rubystar or Pherastar (both from BMG Lab Technologies) or a Viewlux (Perkin-Elmer) and the ratio of the emissions at 665 nm and at 622 nm was taken as indicator for the amount of ATAD2/Ac-H4 complexes in equilibrium.
The data were normalized using two sets of control wells (16 each). The first accounted for 100% ATAD2/Ac-H4 binding (0% inhibition), and contained all reaction components but DMSO instead of inhibitors. The second represented 0% ATAD2/Ac-H4 binding (100% inhibition), and included all assay components except ATAD2. IC50 values were calculated by fitting the normalized inhibition data to a 4-parameter logistic equation using either Screener software (Genedata) or a Bayer-proprietary analysis software.
A general note: Time-resolved FRET reads energy transfer from a long-lived donor to a nearby acceptor.
`Cc1ccc(C(C)NCc2ccc(-c3ccc(Cl)c(C(=O)N[C@@H](Cc4ccc(C#N)cc4)c4ncc[nH]4)c3)o2)cc1` (stereo in doubt) [Example 19, 2-chloro-N-[2-(4-cyanophenyl)-1-(1H-imidazol-2-yl)ethyl]-5-[5-({[(1S)-1-(4-methylphenyl)ethyl]amino}methyl)-2-furyl]benzamide]: the IC50 (commonly the concentration that inhibits the measured activity by half) stood at 640 nM. As for `Cc1ccc([C@@H](C)NCc2ccc(-c3ccc(Cl)c(C(=O)N[C@@H](CC(=O)NCCO)Cc4ccc(C#N)cc4)c3)o2)cc1` [Example 7, 2-chloro-N-{(2R)-1-(4-cyanophenyl)-4-[(2-hydroxyethyl)amino]-4-oxobutan-2-yl}-5-[5-({[(1R)-1-(4-methylphenyl)ethyl]amino}methyl)-2-furyl]benzamide], the IC50 worked out at 832 nM. `CNC(=O)C[C@@H](Cc1ccc(C#N)cc1)NC(=O)c1cc(-c2ccc(CN[C@H](C)c3ccc(Cl)cc3)o2)ccc1Cl` [Example 89, 2-chloro-5-[5-({[(1R)-1-(4-chlorophenyl)ethyl]amino}methyl)-2-furyl]-N-[(2R)-1-(4-cyanophenyl)-4-(methylamino)-4-oxobutan-2-yl]benzamide]: the IC50 amounted to 2060 nM. As to `CNC(=O)C[C@@H](Cc1ccc(C#N)cc1)NC(=O)c1ccc(C#N)c(-c2ccc(CN[C@H](C)c3ccc(C)cc3)o2)c1` [Example 91], the IC50 was 13400 nM. Consider `Cc1ccc([C@@H](C)NCc2ccc(-c3ccc(Cl)c(C(=O)N[C@@H](CNCC(=O)N4CCNCC4)Cc4ccc(C#N)cc4)c3)o2)cc1` [Example 55, 2-chloro-N-[(2R)-1-(4-cyanophenyl)-3-{[2-oxo-2-(piperazin-1-yl)ethyl]amino}propan-2-yl]-5-[5-({[(1R)-1-(4-methylphenyl)ethyl]amino}methyl)-2-furyl]benzamide], for which the IC50 stood at 274 nM. `Cc1ccc([C@@H](C)NCc2ccc(-c3ccc(Cl)c(C(=O)N[C@@H](CNCCC4CCNCC4)Cc4ccc(C#N)cc4)c3)o2)cc1` [Example 70]: the IC50 was 85.8 nM. As to `COC(=O)C[C@@H](Cc1ccc(C#N)cc1)NC(=O)c1cc(-c2ccc(CN[C@H](C)c3ccc(C)cc3)o2)ccc1Cl` [Example 50, methyl (3R)-3-({2-chloro-5-[5-({[(1R)-1-(4-methylphenyl)ethyl]amino}methyl)-2-furyl]benzoyl}amino)-4-(4-cyanophenyl)butanoate], the IC50 amounted to 1260 nM. The result for `Cc1ccc([C@@H](C)NCc2ccc(-c3ccc(Cl)c(C(=O)N[C@@H](CC(=O)N4CCCC4)Cc4ccc(C#N)cc4)c3)o2)cc1` [Example 9, 2-chloro-N-[(2R)-1-(4-cyanophenyl)-4-oxo-4-(pyrrolidin-1-yl)butan-2-yl]-5-[5-({[(1R)-1-(4-methylphenyl)ethyl]amino}methyl)-2-furyl]benzamide] reads 749 nM. Consider `COc1cc(Cl)c(C(=O)N[C@@H](CO)Cc2ccc(C#N)c(C)c2)cc1-c1ccc(CN[C@H](C)c2ccc(C)cc2)o1` [Example 82], for which the IC50 stood at 350 nM. In the case of `Cc1ccc([C@@H](C)NCc2ccc(-c3ccc(Cl)c(C(=O)N[C@@H](CO)Cc4ccc(C#N)cc4N)c3)o2)cc1` [Example 41, N-[(2R)-1-(2-amino-4-cyanophenyl)-3-hydroxypropan-2-yl]-2-chloro-5-[5-({[(1R)-1-(4-methylphenyl)ethyl]amino}methyl)-2-furyl]benzamide], the IC50 is 759 nM.

Turning to `Cc1ccc([C@@H](C)NCc2ccc(-c3ccc(Cl)c(C(=O)N[C@@H](CN[C@H]4CCCN(C)C4)Cc4ccc(C#N)cc4)c3)o2)cc1` [Example 65], the IC50 was 121 nM. For the compound `CNC(=O)[C@@H](Cc1ccc(C#N)cc1)NC(=O)c1cc(-c2ccc(CN[C@H](C)c3ccc(C)cc3)o2)ccc1Cl` [Example 5, Nα-{2-chloro-5-[5-({[(1R)-1-(4-methylphenyl)ethyl]amino}methyl)furan-2-yl]benzoyl}-4-cyano-N-methyl-D-phenylalaninamide], the IC50 amounted to 1890 nM.
